Results published in patent US20240207427A1, “SELECTIVE DRUG RELEASE FROM INTERNALIZED CONJUGATES OF BIOLOGICALLY ACTIVE COMPOUNDS” (priority 2021, published 2024).
Read-outs that look alike come from different tables or passages of the source.

Assays:
Type in all cases: cell-based
[1] = system: renal carcinoma cells (786-O); assay: In vitro potency (CellTiter-Glo, 96 h), 786-O; conditions: Homo sapiens, 786-0, 96 h
Experimental: (§1) In vitro potency was assessed on multiple cancer cell lines. All cell lines were authenticated by STR profiling at IDEXX Bioresearch and cultured for no more than 2 months after resuscitation. Cells cultured in log-phase growth were seeded for 24 hours in 96-well plates containing […] RPMI 1640 supplemented with 20% FBS. Serial dilutions of antibody-drug conjugates in cell culture media were prepared at 4× working concentrations, and 50 μL of each dilution was added to the 96-well plates. Following addition of test articles, cells were incubated with test articles for 4 days at 37 0° C. After 96 hours, growth inhibition was assessed by CellTiterGlo® (Promega, Madison, WI) and luminescence was measured on a plate reader.
(§2) In Table 7, IC50 values for ADCs are given in ng/mL. Cell viability was determined by CellTiter-Glo staining after 96 h exposure to ADC. ND=Not Determined. Ag2 is an antibody targeting a ubiquitous and readily internalizable antigen. The cancer cell lines tested are renal carcinoma cells (786-0), melanoma cells (A2058), pancreatic cancer cells (BxPC3), non-small-cell lung cancer cells (Calu1), anaplastic large cell lymphoma cells (DEL, DELBVR, Karpas299), Hodgkin's lymphoma cells (L540cy), (Ls174T), breast cancer cells (MDA-MB-231), acute myeloid leukemia cells (MOLM-13), and B-lymphocyte cancer cells (SU-DHL4).
as §1, with “FBS.” for “FBS. Serial dilutions of antibody-drug conjugates in cell culture media were prepared at 4× working concentrations, and 50 μL of each dilution was added to the 96-well plates.”
(§3) Cell viability was determined by CellTiter-Glo staining after 96 h exposure to the compound. ND=Not Determined. The cancer cell lines tested are renal carcinoma cells (786-0), melanoma cells (A2058), pancreatic cancer cells (BxPC3), non-small-cell lung cancer cells (Calu1), anaplastic large cell lymphoma cells (DEL, DELBVR, Karpas299), Hodgkin's lymphoma cells (L540cy), (Ls 174T), breast cancer cells (MDA-MB-231), acute myeloid leukemia cells (MOLM-13), B-lymphocyte cancer cells (SU-DHL4), multiple myeloma cells (MM.1R), (U266), and melanoma cells (SK-MEL-5).
as §1, with “37°” for “37 0°”
(§4) In the following Tables IC50 values for ADCs and CPT free drugs are given in ng/mL and nmol/L concentrations. Cell viability was determined by CellTiter-Glo staining after 96 h exposure to ADC or CPT free drug.
(§5) Cell viability was determined by CellTiter-Glo staining after 96 h exposure to ADC. ND=Not Determined.

melanoma cells (A2058) = assay: In vitro potency (CellTiter-Glo, 96 h), A2058; conditions: Homo sapiens, A2058, 96 h, read-out: A2058 IC50
Experimental: as §1, §2
as §1, with “FBS.” for “FBS. Serial dilutions of antibody-drug conjugates in cell culture media were prepared at 4× working concentrations, and 50 μL of each dilution was added to the 96-well plates.”
as §3
as §1, with “37°” for “37 0°”
as §4, §5

[2] = system: pancreatic cancer cells (BxPC3); assay: In vitro potency (CellTiter-Glo, 96 h), BxPC3; conditions: Homo sapiens, BXPC-3, 96 h
Experimental: as §1, §2
as §1, with “FBS.” for “FBS. Serial dilutions of antibody-drug conjugates in cell culture media were prepared at 4× working concentrations, and 50 μL of each dilution was added to the 96-well plates.”
as §3
as §1, with “37°” for “37 0°”
as §4, §5

[3] = system: anaplastic large cell lymphoma cells (DEL); assay: In vitro potency (CellTiter-Glo, 96 h), DEL
Experimental: as §1, §2
as §1, with “FBS.” for “FBS. Serial dilutions of antibody-drug conjugates in cell culture media were prepared at 4× working concentrations, and 50 μL of each dilution was added to the 96-well plates.”
as §3
as §1, with “37°” for “37 0°”
as §4, §5

[4] = system: anaplastic large cell lymphoma cells (DELBVR); assay: In vitro potency (CellTiter-Glo, 96 h), DELBVR
Experimental: as §1, §2
as §1, with “FBS.” for “FBS. Serial dilutions of antibody-drug conjugates in cell culture media were prepared at 4× working concentrations, and 50 μL of each dilution was added to the 96-well plates.”
as §3
as §1, with “37°” for “37 0°”
as §4, §5

[5] = system: anaplastic large cell lymphoma cells (Karpas299); assay: In vitro potency (CellTiter-Glo, 96 h), Karpas299; conditions: Homo sapiens, KARPAS-299, 96 h
Experimental: as §1, §2
as §1, with “FBS.” for “FBS. Serial dilutions of antibody-drug conjugates in cell culture media were prepared at 4× working concentrations, and 50 μL of each dilution was added to the 96-well plates.”
as §3
as §1, with “37°” for “37 0°”
as §4, §5

[6] = system: Hodgkin's lymphoma cells (L540cy); assay: In vitro potency (CellTiter-Glo, 96 h), L540cy
Experimental: as §1, §2
as §1, with “FBS.” for “FBS. Serial dilutions of antibody-drug conjugates in cell culture media were prepared at 4× working concentrations, and 50 μL of each dilution was added to the 96-well plates.”
as §3
as §1, with “37°” for “37 0°”
as §4, §5

Ls174T cells = assay: In vitro potency (CellTiter-Glo, 96 h), Ls174T; conditions: Homo sapiens, LS174T, 96 h
Experimental: as §1, §2
as §1, with “FBS.” for “FBS. Serial dilutions of antibody-drug conjugates in cell culture media were prepared at 4× working concentrations, and 50 μL of each dilution was added to the 96-well plates.”
as §3
as §1, with “37°” for “37 0°”
as §4, §5

[7] = system: acute myeloid leukemia cells (MOLM-13); assay: In vitro potency (CellTiter-Glo, 96 h), MOLM-13; conditions: Homo sapiens, MOLM-13, 96 h
Experimental: as §1, §2
as §1, with “FBS.” for “FBS. Serial dilutions of antibody-drug conjugates in cell culture media were prepared at 4× working concentrations, and 50 μL of each dilution was added to the 96-well plates.”
as §3
as §1, with “37°” for “37 0°”
as §4, §5

[8] = system: B-lymphocyte cancer cells (SU-DHL4); assay: In vitro potency (CellTiter-Glo, 96 h), SU-DHL-4; conditions: Homo sapiens, SU-DHL-4, 96 h
Experimental: as §1, §2
as §1, with “FBS.” for “FBS. Serial dilutions of antibody-drug conjugates in cell culture media were prepared at 4× working concentrations, and 50 μL of each dilution was added to the 96-well plates.”
as §3
as §1, with “37°” for “37 0°”
as §4, §5

[9] = system: breast cancer cells (MDA-MB-231); assay: In vitro potency (CellTiter-Glo, 96 h), MDA-MB-231; conditions: Homo sapiens, MDA-MB-231, 96 h, read-out: MDAMB231 IC50, Table 29; CPT free drugs; breast cancer cells MDA-MB-231; 96 h, CellTiter-Glo
Experimental: as §1, §2
as §1, with “FBS.” for “FBS. Serial dilutions of antibody-drug conjugates in cell culture media were prepared at 4× working concentrations, and 50 μL of each dilution was added to the 96-well plates.”
as §3
as §1, with “37°” for “37 0°”
as §4, §5

[10] = read-out: 786-O IC50, Table 29, CPT free drugs, renal carcinoma cells 786-O, 96 h, CellTiter-Glo
[11] = read-out: BxPC3 IC50, Table 29, CPT free drugs, pancreatic cancer cells BxPC3, 96 h, CellTiter-Glo
[12] = read-out: DEL IC50, Table 29, CPT free drugs, anaplastic large cell lymphoma cells DEL, CellTiter-Glo
[13] = read-out: DELBVR IC50, Table 29, CPT free drugs, anaplastic large cell lymphoma cells DELBVR, CellTiter-Glo
[14] = read-out: Karpas299 IC50, Table 29, CPT free drugs, anaplastic large cell lymphoma cells Karpas299, 96 h, CellTiter-Glo
[15] = read-out: L540cy IC50, Table 29, CPT free drugs, Hodgkin's lymphoma cells L540cy, CellTiter-Glo
[16] = read-out: Ls174T IC50, Table 29, CPT free drugs, Ls174T cells, CellTiter-Glo
[17] = read-out: MOLM-13 IC50, Table 29, CPT free drugs, acute myeloid leukemia cells MOLM-13, 96 h, CellTiter-Glo
[18] = read-out: SU-DHL-4 IC50, Table 29, CPT free drugs, B-lymphocyte cancer cells SU-DHL4, 96 h, CellTiter-Glo

Structure (SMILES) | IC50 ([1]; read-out: 786-O IC50, camptothecin free drug, 96 h) [nM] | IC50 (melanoma cells (A2058)) [nM] | IC50 ([2]; read-out: BxPC3 IC50, camptothecin free drug, 96 h) [nM] | IC50 ([3]; read-out: DEL IC50, camptothecin free drug, 96 h) [nM] | IC50 ([4]; read-out: DELBVR IC50, camptothecin free drug, 96 h) [nM] | IC50 ([5]; read-out: Karpas299 IC50, camptothecin free drug, 96 h) [nM] | IC50 ([6]; read-out: L540cy IC50, camptothecin free drug, 96 h) [nM] | IC50 (Ls174T cells; read-out: Ls174T IC50, camptothecin free drug, 96 h) [nM] | IC50 ([7]; read-out: MOLM-13 IC50, camptothecin free drug, 96 h) [nM] | IC50 ([8]; read-out: SU-DHL-4 IC50, camptothecin free drug, 96 h) [nM] | IC50 [1, 10] [nM] | IC50 [2, 11] [nM] | IC50 [3, 12] [nM] | IC50 [4, 13] [nM] | IC50 [5, 14] [nM] | IC50 [6, 15] [nM] | IC50 (Ls174T cells; [16]) [nM] | IC50 [9] [nM] | IC50 [7, 17] [nM] | IC50 [8, 18] [nM]
CC[C@@]1(O)C(=O)OCc2c1cc1n(c2=O)Cc2c-1nc1cc3c(cc1c2CNCCN1CCN(C)CC1)OCO3 [Compound 7b] | 162 | 55 | 172 | 54 | 55 | 158 | 87 | 77 | 533 | 94 | – | – | – | – | – | – | – | – | – | –
CC[C@@]1(O)C(=O)OCc2c1cc1n(c2=O)Cc2c-1nc1cc3c(cc1c2CN1CCN(CCN)CC1)OCO3 [Compound 8c] | – | – | – | – | – | – | – | – | – | – | 27 | 14 | 3 | 4 | 28 | 14 | 32 | 57 | 69 | 7
CC[C@@]1(O)C(=O)OCc2c1cc1n(c2=O)Cc2c-1nc1cc3c(cc1c2CNCCCN1CCNCC1)OCO3 [Compound 8d] | – | – | – | – | – | – | – | – | – | – | 15 | 14 | 2 | 2 | 9 | 6 | 19 | 25 | 37 | 6
CC[C@@]1(O)C(=O)OCc2c1cc1n(c2=O)Cc2c-1nc1cc3c(cc1c2CNC1CCNCC1)OCO3 [Compound 8e] | – | – | – | – | – | – | – | – | – | – | 104 | 62 | 7 | 10 | 72 | 36 | 109 | 102 | 89 | 25
